The values below come from article PMC11258189, “Estrogenic, androgenic, and genotoxic activities of zearalenone and deoxynivalenol in in vitro bioassays including exogenous metabolic activation” (Mycotoxin Research, 2024).

On the set-up of data set [1]: method as in Drzymala et al. [2015]. To be noted: ref Drzymala et al. [2015]; cited from earlier work.
Data set [2] deals with estrogen receptor (ER). In kind it is cell-based, human.
In data set [3] the target is T1, human androgen receptor (Homo sapiens, UniProt P10275).
T1 construct: host or cells: Chinese hamster ovary (CHO) cells, AR-EcoScreen GR KO M1, stably transfected, glucocorticoid receptor knocked out
T1 sequence (P10275 1-920): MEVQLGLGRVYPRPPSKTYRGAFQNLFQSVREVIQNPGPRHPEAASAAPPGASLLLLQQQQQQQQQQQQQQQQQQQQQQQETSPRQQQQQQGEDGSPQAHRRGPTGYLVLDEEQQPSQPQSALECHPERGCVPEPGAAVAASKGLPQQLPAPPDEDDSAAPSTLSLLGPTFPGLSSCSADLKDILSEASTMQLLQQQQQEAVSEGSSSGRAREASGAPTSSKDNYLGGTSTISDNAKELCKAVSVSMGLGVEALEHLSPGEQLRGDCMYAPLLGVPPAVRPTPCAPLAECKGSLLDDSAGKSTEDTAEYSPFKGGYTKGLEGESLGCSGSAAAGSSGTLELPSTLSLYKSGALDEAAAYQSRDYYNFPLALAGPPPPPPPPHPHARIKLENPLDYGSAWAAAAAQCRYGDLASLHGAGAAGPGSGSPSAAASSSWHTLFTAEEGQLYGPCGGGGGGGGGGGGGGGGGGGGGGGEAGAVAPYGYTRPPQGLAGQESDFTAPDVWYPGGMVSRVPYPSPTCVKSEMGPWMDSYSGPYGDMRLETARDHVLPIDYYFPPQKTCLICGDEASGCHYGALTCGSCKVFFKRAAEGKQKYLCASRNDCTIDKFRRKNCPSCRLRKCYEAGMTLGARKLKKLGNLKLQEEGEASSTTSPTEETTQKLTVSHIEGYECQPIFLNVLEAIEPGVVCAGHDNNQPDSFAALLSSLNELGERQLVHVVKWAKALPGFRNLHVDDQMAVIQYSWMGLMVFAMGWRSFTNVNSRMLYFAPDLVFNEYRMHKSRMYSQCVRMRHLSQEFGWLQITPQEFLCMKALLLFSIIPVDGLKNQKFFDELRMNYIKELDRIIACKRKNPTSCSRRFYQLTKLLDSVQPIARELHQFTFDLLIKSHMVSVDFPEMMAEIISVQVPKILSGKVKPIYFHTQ
In kind it is cell-based.

Data set [4] has as its system estrogen receptor (ER).
Another data set deals with AR. Further details: method as in Molina-Molina et al. [2014]. As to conditions: androgen-sensitive PALM cells; ref Molina-Molina et al. [2014]; cited from earlier work.
For data set [5], the target named is T1, human androgen receptor. Type of data set: cell-based. The source holds these as a separate data set.
[6] abbreviates: ZEN compounds, S9 + PHI cofactors, [95% CI].
[7] abbreviates: ZEN compounds, S9 alone, [95% CI].
The mark [8] stands for this setting: without exogenous MAS, initial concentration-range finding trials, 24 h.
Where [9] appears, read: DON compounds, S9 + PHI + PHII cofactors, [95% CI].
Where [10] appears, read: DON compounds, S9 + PHII cofactors, [95% CI].
Where [11] appears, read: DON compounds, S9 alone, [95% CI].
[12] abbreviates: DON compounds, no MAS, [95% CI].
The mark [13] stands for this setting: DON compounds, S9 + PHI + PHII cofactors.
[14] abbreviates: DON compounds, S9 + PHII cofactors.

Like-named read-outs stand apart in the source and are kept apart here. Bounds are passed on as bounds.

With `CC1CCCC(=O)CCC/C=C/c2cc(O)c(O)c(O)c2C(=O)O1` (stereo not drawn) [15-OH-ZEN], the “Estrogenic potency compared to ZEN, set at 1” value in data set [1] is on record as 0.02.
Regarding `C[C@H]1CCC[C@H](O)CCC/C=C/c2cc(O)cc(O)c2C(=O)O1` [α-ZEL, α-Zearalenol], the “ER antagonism IC30” value with estrogen receptor (ER) [2] (ZEN compounds, S9 + PHI + PHII cofactors, [95% CI]) was 5.10 [2.88,8.13] µM; in the data set on estrogen receptor (ER) [2] (setting [6]), 2.42 [1.35,3.63] µM; in the data set on estrogen receptor (ER) [2] (setting [7]) it was 1.75 [0.69,3.02] µM; in the data set on estrogen receptor (ER) [2] (ZEN compounds, no MAS, [95% CI]) it was 1.03 [0.33,1.78] µM; in the data set on estrogen receptor (ER) [2] (setting [8]), 1.39 µM. The “AR agonism EC10” value on human androgen receptor [3] is on record as “<LOD”. In addition, the “Estrogenic potency relative to ZEN (times more potent)” value in the data set on estrogen receptor (ER) [4] is approximately 10 times. The “ER agonism EC10” value in the data set with estrogen receptor (ER) [4] (setting [6]) was 49.3 [30.2,75.9] pM; in the data set with estrogen receptor (ER) [4] (setting [7]), 4.24 [2.82,6.31] pM; in the data set on estrogen receptor (ER) [4] (ZEN compounds, no MAS (S9 −, PHI −, PHII −), [95% CI]), 3.70 [2.51,5.37] pM; in the data set on estrogen receptor (ER) [4] (setting [8]) it was 3.59 pM. Further, in the data set on AR, the “AR antagonistic effect IC50” value is on record as “micromolar range”.
For the compound `CC(=O)O[C@@H]1C[C@]2(C)[C@@]3(CO)[C@H](O)C(=O)C(C)=C[C@H]3O[C@H]1[C@@]21CO1` [3-Ac-DON, 3-acetyl deoxynivalenol], the “ER antagonism IC30” value in the data set on estrogen receptor (ER) [2] (setting [9]), in the data set with estrogen receptor (ER) [2] (setting [10]), in the data set on estrogen receptor (ER) [2] (setting [11]), in the data set with estrogen receptor (ER) [2] (setting [12]) and in the data set on estrogen receptor (ER) [2] (setting [8]) was “<LOD” in each case. Further, the “AR agonism EC10” value on human androgen receptor [3] (setting [9]) is 0.91 [0.65,1.35] µM; on human androgen receptor [3] (setting [10]) it was 0.63 [0.52,0.78] µM; at human androgen receptor [3] (setting [11]), 1.07 [0.91,1.23] µM; at human androgen receptor [3] (setting [12]), 1.11 [0.95,1.26] µM; at human androgen receptor [3] (setting [8]), 1.31 µM. For the same compound, the “AR antagonism IC30” value is on record as “<LOD” on human androgen receptor [5] (setting [13]); “<LOD” at human androgen receptor [5] (setting [14]); “<LOD” at human androgen receptor [5] (DON compounds, S9 alone); “<LOD” on human androgen receptor [5] (DON compounds, no MAS); “<LOD” at human androgen receptor [5] (setting [8]). Moreover, the “Estrogenicity relative to α-ZEL (times lower)” value in the data set on estrogen receptor (ER) [4] was ~10^5 times. Moreover, the “ER agonism EC10” value with estrogen receptor (ER) [4] (setting [13]) was “<LOD”; with estrogen receptor (ER) [4] (setting [14]) it was “<LOD”; with estrogen receptor (ER) [4] (setting [11]), 0.53 [0.49,0.59] µM; in the data set with estrogen receptor (ER) [4] (setting [12]) it was 0.45 [0.41,0.49] µM; in the data set with estrogen receptor (ER) [4] (setting [8]), 310,000 pM. Also, the “ER agonism, response as % of the maximum response of E2 in the assay” value in the data set with estrogen receptor (ER) [4] (without MAS) was 30%. Besides, the “ER bioassay EC10 (estrogenic)” value in the data set on estrogen receptor (ER) [4] (without MAS, abstract) was 310 nM.
In the case of `CC(=O)OC[C@]12[C@H](O)C(=O)C(C)=C[C@H]1O[C@@H]1[C@H](O)C[C@@]2(C)[C@]12CO2` [15-Ac-DON, 15-acetyl deoxynivalenol], the “ER antagonism IC30” value was 0.48 [0.30,0.72] µM in the data set with estrogen receptor (ER) [2] (setting [9]); 0.24 [0.18,0.32] µM in the data set with estrogen receptor (ER) [2] (setting [10]); 1.11 [0.81,1.38] µM in the data set on estrogen receptor (ER) [2] (setting [11]); 1.09 [0.98, 1.20] µM in the data set with estrogen receptor (ER) [2] (setting [12]); 0.99 µM with estrogen receptor (ER) [2] (setting [8]). Besides, the “AR agonism EC10” value is 0.52 [0.45,0.62] µM at human androgen receptor [3] (setting [9]); 0.50 [0.45,0.56] µM on human androgen receptor [3] (setting [10]); 0.70 [0.62,0.76] µM at human androgen receptor [3] (setting [11]); 0.81 [0.74,0.87] µM at human androgen receptor [3] (setting [12]); 0.77 µM on human androgen receptor [3] (setting [8]). Further, the “AR antagonism IC30” value on human androgen receptor [5] (setting [13]) is listed as “<LOD”; on human androgen receptor [5] (setting [14]), “<LOD”; on human androgen receptor [5] (DON compounds, S9 alone), “<LOD”; on human androgen receptor [5] (DON compounds, no MAS), “<LOD”; on human androgen receptor [5] (setting [8]) it was “<LOD”. Besides, the “ER agonism EC10” value with estrogen receptor (ER) [4] (setting [13]), in the data set with estrogen receptor (ER) [4] (setting [14]), in the data set with estrogen receptor (ER) [4] (setting [11]), with estrogen receptor (ER) [4] (setting [12]) and in the data set with estrogen receptor (ER) [4] (setting [8]) was “<LOD” each time.
Consider `C[C@]12CC[C@@H]3c4ccc(O)cc4CC[C@H]3[C@@H]1CC[C@@H]2O` [E2, 17β-estradiol, reference compound], for which, in the data set with estrogen receptor (ER) [4], the “ER agonistic activity after treatment of cells with only S9” value is “reduction of ER agonistic activity”.
